In paper PMC9103625, “The Role of the Nucleotides in the Insertion of the bis-Molybdopterin Guanine Dinucleotide Cofactor into apo-Molybdoenzymes” (Molecules, 2022):

Assays:
apo-YdhV = molecular target: T1, apo-YdhV (Escherichia coli, UniProt P76192); assay: in vitro reconstitution, gel filtration, HPLC of dephospho-FormA; assay type: binding; details: 1.3 µM apo-YdhV, 7 h, 37 °C, pH 7.2, anaerobic, cofactor from alkaline phosphatase treatment
T1 construct: from plasmid SR153, expressed in E. coli RK5200, Ni-NTA and size exclusion purified; cofactor-free apo-protein
T1 sequence (P76192 1-700): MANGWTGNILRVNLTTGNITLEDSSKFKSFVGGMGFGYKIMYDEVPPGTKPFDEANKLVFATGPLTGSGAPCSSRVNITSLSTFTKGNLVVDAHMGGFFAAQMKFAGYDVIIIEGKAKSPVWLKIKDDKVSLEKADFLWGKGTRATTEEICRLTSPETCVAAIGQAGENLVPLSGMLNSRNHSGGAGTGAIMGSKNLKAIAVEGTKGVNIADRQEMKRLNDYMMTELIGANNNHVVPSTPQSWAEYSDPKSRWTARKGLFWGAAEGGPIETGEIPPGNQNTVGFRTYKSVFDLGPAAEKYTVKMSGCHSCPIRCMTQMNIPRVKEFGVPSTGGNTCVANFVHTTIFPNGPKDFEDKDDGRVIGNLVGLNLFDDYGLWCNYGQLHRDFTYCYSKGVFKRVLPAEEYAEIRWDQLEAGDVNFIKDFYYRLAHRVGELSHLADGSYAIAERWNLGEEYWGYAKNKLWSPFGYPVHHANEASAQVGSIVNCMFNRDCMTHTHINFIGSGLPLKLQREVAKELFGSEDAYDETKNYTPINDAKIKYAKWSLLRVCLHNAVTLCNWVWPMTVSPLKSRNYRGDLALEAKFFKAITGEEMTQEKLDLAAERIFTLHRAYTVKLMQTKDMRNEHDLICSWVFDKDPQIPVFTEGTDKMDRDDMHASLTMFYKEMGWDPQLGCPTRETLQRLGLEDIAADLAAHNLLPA

MobA = molecular target: T2, MobA (Escherichia coli, UniProt P32173); assay: conversion to bis-MGD, HPLC of FormA-GMP; assay type: biochemical; details: 3 µM MobA, 1 mM GTP, 1 mM MgCl2, 5 min, room temperature, bis-Mo-MPT from 30 µM YdhV
T2 construct: from plasmid pCT800A, Ni-NTA and size exclusion purified; monomer
T2 sequence (P32173 1-194): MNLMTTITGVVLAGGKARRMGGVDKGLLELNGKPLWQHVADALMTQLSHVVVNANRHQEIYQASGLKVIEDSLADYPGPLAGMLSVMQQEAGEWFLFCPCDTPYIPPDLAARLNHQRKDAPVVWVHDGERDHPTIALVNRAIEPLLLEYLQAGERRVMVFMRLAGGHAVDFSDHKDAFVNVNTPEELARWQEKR

apo-TorA = molecular target: T3, apo-TorA (Escherichia coli, UniProt P33225); assay: in vitro reconstitution, gel filtration, HPLC of FormA-GMP; assay type: binding; details: 1.3 µM apo-TorA, bis-MGD extracted from wtTorA, saturation at 25 µM donor, 7 h, 37 °C, pH 7.2, anaerobic
T3 construct: from plasmid pJF119EH, Ni-NTA and size exclusion purified; cofactor-free apo-enzyme reconstituted in vitro
T3 sequence (P33225 40-848): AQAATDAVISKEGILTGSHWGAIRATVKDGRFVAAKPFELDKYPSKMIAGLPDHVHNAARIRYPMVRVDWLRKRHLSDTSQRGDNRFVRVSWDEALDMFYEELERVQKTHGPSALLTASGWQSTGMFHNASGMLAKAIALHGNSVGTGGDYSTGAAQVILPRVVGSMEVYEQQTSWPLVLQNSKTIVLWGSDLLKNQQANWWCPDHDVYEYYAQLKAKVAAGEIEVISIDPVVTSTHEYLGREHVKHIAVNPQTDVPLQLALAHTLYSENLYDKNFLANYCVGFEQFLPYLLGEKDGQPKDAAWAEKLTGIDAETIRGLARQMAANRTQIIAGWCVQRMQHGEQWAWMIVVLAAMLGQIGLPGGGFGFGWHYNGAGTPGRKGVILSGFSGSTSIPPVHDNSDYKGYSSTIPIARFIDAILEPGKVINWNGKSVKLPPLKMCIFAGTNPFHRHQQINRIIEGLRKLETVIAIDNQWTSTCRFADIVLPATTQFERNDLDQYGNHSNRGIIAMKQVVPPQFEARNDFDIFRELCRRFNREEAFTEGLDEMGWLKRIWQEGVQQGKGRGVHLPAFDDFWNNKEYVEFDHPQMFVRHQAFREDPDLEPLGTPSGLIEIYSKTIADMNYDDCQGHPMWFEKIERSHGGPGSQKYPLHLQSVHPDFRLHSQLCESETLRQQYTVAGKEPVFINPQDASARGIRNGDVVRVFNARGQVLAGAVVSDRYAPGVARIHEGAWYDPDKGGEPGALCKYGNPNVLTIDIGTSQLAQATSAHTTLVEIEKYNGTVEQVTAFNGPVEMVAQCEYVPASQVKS

dephospho-bis-Mo-MPT
% bound at 100 μM donor (apo-YdhV): 25.1%

Nc1nc2c(ncn2[C@@H]2O[C@H](COP(=O)(O)OP(=O)(O)OP(=O)(O)O)[C@@H](O)[C@H]2O)c(=O)[nH]1 [GTP]
conversion to bis-MGD, HPLC of FormA-GMP (MobA): we converted bis-Mo-MPT into bis-MGD by the attachment of nucleotides using MobA and Mg-GTP

Nc1nc2c(c(=O)[nH]1)N[C@H]1C([S-])=C([S-])[C@@H](COP(=O)([O-])OP(=O)([O-])OC[C@H]3O[C@@H](n4cnc5c(=O)[nH]c(N)nc54)[C@H](O)[C@@H]3O)O[C@H]1N2.Nc1nc2c(c(=O)[nH]1)N[C@H]1C([S-])=C([S-])[C@@H](COP(=O)([O-])OP(=O)([O-])OC[C@H]3O[C@@H](n4cnc5c(=O)[nH]c(N)nc54)[C@H](O)[C@@H]3O)O[C@H]1N2.[O]=[Mo+4] [bis-MGD]
% bis-MGD saturation (maximum) (apo-TorA): 61.9%
